Common to all, as to format: functional, cell-based
A short description of test [1]: Cytotoxicity against the growth of LS174T human colon cancer cells was determined using sulforhodamine B assay. A general note: In SRB staining, fixed cells bind dye roughly in proportion to their protein.
A short description of test [2]: Cytotoxicity against the growth of […] human colon cancer cells was determined using sulforhodamine B assay in the presence of Nitroreductase+NADH. As to conditions: Cancer cell lines.
Test [3] is described as follows: Cytotoxicity against the growth of LS174T human colon cancer cells was determined using sulforhodamine B assay in the presence of Nitroreductase+NADH.
A short description of test [4]: Cytotoxicity against the growth of […] human colon cancer cells was determined using sulforhodamine B assay. The conditions noted are these: Cancer cell lines.

As a reminder, the IC50 is the concentration needed to halve the response being measured. On to `Cn1cc(NC(=O)c2cc(NC(=O)c3cc(NC(=O)c4ccc(N(CCCl)CCCl)cc4)cn3C)cn2C)cc1C(=O)NCCCNC(=O)OCc1ccc([N+](=O)[O-])cc1`, for which the IC50 in test [1] came to 2.3 µM; in test [2], 9.4 µM; in test [3], 0.02 µM; in test [4], 22.9 µM.

For the compound `Cn1cc(NC(=O)c2cc(NC(=O)c3cc(NC(=O)c4ccc(N(CCCl)CCCl)cc4)cn3C)cn2C)cc1C(=O)NCCCN`, the half-inhibitory concentration (IC50) in test [1] was determined as 0.02 µM; in test [4] it was 10 µM.

(Values after ChEMBL document CHEMBL1129910, “Synthesis of an aminopropyl analog of the experimental anticancer drug tallimustine, and activation of its 4-nitrobenzylcarbamoyl prodrug by nitroreductase and NADH” (Bioorg Med Chem Lett, 1997).)
